Each block holds one molecule with its values, some of them ahead of it. Where a SMILES comes first, the peptide text is derived from it. The star is where a group is joined. 5TAMRA = CN(C)c1ccc2c(c1)Oc1cc(N(C)C)ccc1C21OC(=O)c2cc(C(=O)*)ccc21; X1 = O=C(CON=CCO[C@H]1O[C@H](CO)[C@@H](O)[C@H](O)[C@@H]1O)*; X2 = CC(C)=NOCC(=O)*; Ahx = NCCCCCC(=O)O
Legend:
HeLa cells [1] = test: Viability in the presence of saporin (MTT); assay type: cell-based; conditions: up to 30 µM, 1 h incubation, Figure 9
Protocol: Saporin (253 aa, 28 kDa) is a toxic protein from the group of the ribosome-inactivating proteins (RIP), which is not capable of reaching the cytosol by itself, although it can be passively internalized by pinocytosis if it is found in the culture medium, being retained in endosomes. Incubation of the cells with this protein in the presence of an endosomolytic agent causes the release of the protein to the cytosol and cell death.
For the experiment, HeLa cells were incubated in a 96-well plate with 10 µg/mL of saporin, and increasing concentrations of the P8 and R8 acetylated peptides.
The cells were co-incubated with the protein and peptide for 1 h in culture medium without serum or antibiotics, at which time the compounds were removed, washed and complete medium was added for 6 h, to allow the maturation of the endosomes and the escape of the toxin. At that time, MTT (tetrazolium salt) was added, cells were further incubated for 3 h, and the medium removed before solubilizing the formazan salt with DMSO. This viability test measures the reduction of MTT to formazan by mitochondrial activity, which can then be quantified by absorbance.

HeLa cells [2] = test: Cell transport experiments (fluorescence microscopy, co-localization); assay type: cell-based; conditions: for transport of ConA: ConA labelled with Alexa Fluor-647
Protocol: HeLa cells growing on four chamber glass bottom dishes were washed with HEPES-Krebs-Ringer (HKR) buffer (5 mM HEPES, 137 mM NaCl, 2.68 mM KCI, 2.05 mM MgCl2, 1.8 mM CaCl2, pH 7.4) and nuclei were stained by incubation with 1 µM Hoechst 33342 in HKR for 30 min. The CPP and protein were diluted in HKR and incubated for 7 min at room temperature to allow the formation of the complexes. Cells were washed with HKR and incubated with the complexes for another 30 min. Cells were washed again to remove excess peptide before performing epifluorescence microscopy using a Nikon Eclipse Ti-E inverted microscope or confocal microscopy with a Leica SP5 microscope. Images were analyzed with ImageJ and the co-localization parameters (Manders coefficients) were calculated using the Coloc2 plugin selecting the Costes method of threshold regression.

endosomes = test: Dextran escape from endosomes; assay type: cell-based; conditions: dextran 250 µg/ml; Figure 11
Protocol: Dextran is a polysaccharide (in this case labeled with a green fluorescent probe) known to internalize cells through the endocytic pathway. Thus, if the CPPs of the invention are capable of inducing release of dextrane from endosomes into the cytosol, the cell will display diffuse green fluorescence. The experiment was run by incubating dextran (250 µg/ml) in the presence of 5 µM of a CPP: (i) P8 marked with TAMRA, (ii) acetylated P8, and (iii) R8 as comparison.

[3] = tested on: HeLa cells stably transfected with a plasmid carrying the LoxP-DsRED-STOP-LoxP-eGFP insert; test: Cre recombinase protein cytosolic delivery (Cre Reporter system); assay type: cell-based; conditions: 1 µM Cre recombinase protein
Protocol: In order to further test the capabilities of the CPPs of the invention to release macromolecules into the cytosol, a Cre recombinase delivery assay was done in the presence of P8. HeLa cells stably transfected with a plasmid carrying the LoxP-DsRED-STOP-LoxP-eGFP insert (Cre Reporter system) were incubated with 1 µM Cre recombinase protein and CPPs P8 or R8 at different concentrations.
These cells express normally the dsRED protein (red fluorescence), but when the Cre recombinase protein removes the dsRED ORF by recombination, the eGFP gene (green fluorescence) is expressed instead. Thus, the percentage of cells expressing eGFP can be used as a measure of the percentage of cells where the Cre Recombinase had been effectively released into the cytosol.

[4] = Circular dichroism, percentage of helicity; assay type: physicochemical; conditions: 40°C; for % Helicity in Liposomes: egg yolk phosphatidylcholine liposomes
Protocol: Circular Dichroism (CD) measurements were performed with a Jasco J-1100 CD Spectrometer equipped with a Jasco MCB-100 Mini Circulation Bath for temperature control.
Circular dichroism measurements were carried out with the following settings: acquisition range: 300-190 nm; band width: 1.0 nm; accumulation: 3 scans; data pitch: 1 nm; CD scale 200 mdeg/1.0 dOD; D.I.T. (Data Integration Time): 1 s; scanning mode: continuous; scanning speed: 200 nm/min. Measurements were done from 10 °C to 60 °C (data interval: 10 °C; temp. gradient 5 °C/min) in a quartz cell of 0.2 cm path length at a final volume of 0.5 mL (H2O or TFE) with a final peptide concentration of 200 µM.
The results are expressed as the mean residue molar ellipticity [θ]MRt with units of degrees·cm^2.dmol^-1 and calculated using the equation S1.
The percentage of helicity was calculated using the equation S2. For the measurements in liposomes, samples were prepared by drying under reduced pressure L-α-phosphatidylcholine (16.7 µL, 25 mg/mL solution in CHCl3) and peptide (300 µL, 100 µM) in TFE to obtain a ratio lipid/peptide of 18:1 in a 10 mL round bottomed flask. The mixture was concentrated in a rotary evaporator to dryness, forming a film. The lipid/peptide mixture were suspended in HKR buffer (300 µL) to a final peptide concentration 100µM and sonicated for 45 min until a clear solution was obtained. Spectra were recorded in a 0.2 cm path length quartz cell. [formula]
Equation S1: Formula to calculate the ellipticity. θ is the ellipticity (mdeg), C is the peptide concentration (M) and I is the cell path length (cm). helicity % = (θMRt222nm−2340)/(30300) × 100 [formula]
Equation S2: Formula to calculate the percent of helicity in where the molar ellipticity at 222 nm is an absolute value.

HeLa cells [5] = test: Quantification of the uptake by flow cytometry; assay type: cell-based; conditions: TAMRA labelled peptides, 1, 3, 5, 7, 10 µM; Figure 3
Protocol: For internalization standard assays we measured the amount of peptide fluorescence in cells by flow cytometry. Briefly, semiconfluent monolayers of HeLa cells seeded the day before were washed twice with HKR before incubation with different concentrations (1, 3, 5, 7, 10 µM) of TAMRA labelled peptides diluted in cell culture medium without serum for 1 hour at 37 °C . Then, cells were trypsinized with 100 µL of Trypsin-EDTA (Gibco) for 10 min at 37 °C, and trypsin neutralized with 100 µL of 2 % FBS in PBS with 5 mM EDTA. Pipetting broke cell clumps and the analysis was done in a Guava easyCyte™ cytometer. TAMRA levels were determined by excitation at 532 nm and detection at 575/25 nm. For the analysis, cells with typical FSC and SSC parameters were selected, and median fluorescence intensity was calculated for each sample. Data analysis was performed with InCyte software included in GuavaSoft 3.2 (Millipore).
The results of uptake of CPP P8 in HeLa, A-549 and SF9 are depicted in Figure 5: Uptake quantification by flow cytometry in three different cell lines: HeLa cells, A549 cells and Sf9 cells. Data points were collected in triplicate at six different concentrations (0, 1, 3, 5, 7, 10 µM). Cells were treated in DMEM (-) (HeLa, A549), or Sf-900-II (-) (Sf9) for 1 hour prior to trypsinization and cytometry quantification. Error bars indicate SD of three replicates.

[6] = co-localization of peptide and ConA

Molecule: CC(C)C[C@H](NC(=O)c1ccc2c(c1)C(=O)OC21c2ccc(N(C)C)cc2Oc2cc(N(C)C)ccc21)C(=O)N[C@@H](CCCNC(=N)N)C(=O)N[C@@H](C)C(=O)N[C@@H](CC(C)C)C(=O)N[C@@H](C)C(=O)N[C@@H](C)C(=O)N[C@@H](CC(C)C)C(=O)N[C@@H](C)C(=O)N[C@@H](CCCNC(=N)N)C(=O)N[C@@H](C)C(=O)N[C@@H](C)C(=O)N[C@@H](C)C(=O)N[C@@H](C)C(=O)N[C@@H](C)C(=O)N[C@@H](C)C(=O)N[C@@H](CCCNC(=N)N)C(N)=O [P8, TmL R ALAALA R A6 R] (5TAMRA-LRALAALARAAAAAAR-NH2)
toxicity to HeLa cells, peptide alone (HeLa cells [1]): little or no toxicity

Molecule: CC(C)=NOCC(=O)NCCCC[C@H](NC(=O)[C@H](CCCNC(=N)N)NC(=O)CCCCCNC(=O)c1ccc2c(c1)C(=O)OC21c2ccc(N(C)C)cc2Oc2cc(N(C)C)ccc21)C(=O)N[C@@H](CC(C)C)C(=O)N[C@@H](CCCNC(=N)N)C(=O)N[C@@H](CCCNC(=N)N)C(=O)N[C@@H](CC(C)C)C(=O)N[C@@H](CC(C)C)C(=O)N[C@@H](CCCNC(=N)N)C(=O)N[C@@H](CCCNC(=N)N)C(=O)N[C@@H](CC(C)C)C(=O)N[C@@H](CCCCNC(=O)CON=C(C)C)C(=O)N[C@@H](CCCNC(=N)N)C(=O)N[C@@H](CC(C)C)C(N)=O [TmP(Acetone)2, reference compound] ({5TAMRA-Ahx}-RK(X2)LRRLLRRLK(X2)RL-NH2)
transport of ConA (HeLa cells [2]): did not complex or transport ConA

Molecule: CC(C)C[C@H](NC(=O)[C@H](CCCNC(=N)N)NC(=O)[C@H](CCCCNC(=O)CON=CCO[C@H]1O[C@H](CO)[C@@H](O)[C@H](O)[C@@H]1O)NC(=O)[C@H](CC(C)C)NC(=O)[C@H](CCCNC(=N)N)NC(=O)[C@H](CCCNC(=N)N)NC(=O)[C@H](CC(C)C)NC(=O)[C@H](CC(C)C)NC(=O)[C@H](CCCNC(=N)N)NC(=O)[C@H](CCCNC(=N)N)NC(=O)[C@H](CC(C)C)NC(=O)[C@H](CCCCNC(=O)CON=CCO[C@H]1O[C@H](CO)[C@@H](O)[C@H](O)[C@@H]1O)NC(=O)[C@H](CCCNC(=N)N)NC(=O)CCCCCNC(=O)c1ccc2c(c1)C(=O)OC21c2ccc(N(C)C)cc2Oc2cc(N(C)C)ccc21)C(N)=O [TmP(Man)2] ({5TAMRA-Ahx}-RK(X1)LRRLLRRLK(X1)RL-NH2)
transport of ConA (HeLa cells [2]): the ConA cellular uptake was observed
Manders coefficients (peptide and protein co-localization) (HeLa cells [2]; approximate value given in the text): ~0.6
Manders' tM1 (Peptide) (HeLa cells [2]; [6]): 0.66
Manders' tM2 (Protein) (HeLa cells [2]; [6]): 0.63

Molecule: Ac-LRALAALARAAAAAAR-NH2 [acetylated P8, AcL R ALAALA R A6 R]
concentration at which the peptide starts to release the dextran into the cytosol (endosomes): 10 µM
peptide concentration at the maximum percentage of eGFP expressing cells [3]: 10 µM
maximum percentage of eGFP expressing cells ([3]; Figure 10): 35%

% Helicity in water [4]: 21.7%
% Helicity in Liposomes [4]: 12.7%
Molecule: TmHexA R AALLAA R AALA3 R [P3]

% Helicity in water [4]: 35.1%
% Helicity in Liposomes [4]: 29.9%
Molecule: TmHexA R ALAALA R ALA4 R [P6]
uptake in living HeLa cells (HeLa cells [5]): perform better in the uptake test

% Helicity in water [4]: 19.3%
% Helicity in Liposomes [4]: 29.5%
Molecule: TmHexL R A5L R A5L R [P5]
uptake in living HeLa cells (HeLa cells [5]): perform better in the uptake test

From patent EP3556767A1, “CELL PENETRATING PEPTIDES” (Universidade De Santiago De Compostela, priority 2018, dated 2019)
